Assay results taken from patent US8618063B2, “Method for treating a synucleinopathy” (The Board of Trustees of the University of Illinois, priority 2008, dated 2013).

What was measured:
DIC phosphorylation = test: Labeling studies with MPP+ treated cortical neurons; type: cell-based
Protocol: One mCi ^32P phosphate (ICN) was added per dish and incubated for 4 hours. Medium was discarded, cells homogenized in 1 ml of ROLB buffer and processed accordingly to standard methods (Morfini, et al. (2004) supra). Axoplasms were prepared as for video microscopy, but 1 mCi of γ-^32P-ATP was added. After 50 minutes incubation, axoplasms were homogenized in ROLB buffer. A 10 μl aliquot of lysate was precipitated with 15% TCA and radioactivity incorporated into protein determined by scintillation counting. Aliquots of equal counts were used for kinesin immunoprecipitation with 10 μg of 74.1 antibody and Protein G-agarose beads (Pierce). Immunoprecipitates were separated by SDS-PAGE, dried and exposed in a PHOSPHORIMAGER cassette, then scanned and quantified on a TYPHOON (Amersham/Molecular Dynamics).
(§1) MPTP/MPP+ is the best characterized example of toxin-induced Parkinson's disease. The effects of MPP+ on fast axonal transport were examined in axoplasm as was dynein phosphorylation in cells. […] Based on reports that MPP+ could activate caspase3 (Turmel, et al. (2001) Mov. Disord. 16:185-9) and that caspase3 can activate a PKC by proteolytic cleavage (Kaul, et al. (2003) Eur. J. Neurosci. 18:1387-401), the ability of a caspase3 inhibitor to block effects of MPP+ on fast axonal transport was evaluated. […] Further, perfusion with Caspase 3 affected retrograde transport in a manner similar to PKC and MPP+ (retrograde transport=1.462±0.016 μm/sec).

[1] = test system: α-synuclein mutant Ala30Pro effects on fast axonal transport; test: Isolated axoplasm: blocking of mutant α-synuclein (Ala30Pro) effects on fast axonal transport; type: cell-based, squid Loligo pealeii; conditions: coperfused with α-synuclein mutant Ala30Pro, FIG. 3
Protocol: (§2) Axoplasm was extruded from giant axons of the squid Loligo pealeii (Marine Biological Laboratory) according to established methods (Brady, et al. (1985) Cell Motil. 5(2):81-101). Axons were 400-600 μm in diameter and provided ≈5 μl of axoplasm per axon. Wild-type α-synuclein or α-synuclein with point mutations associated with familial Parkinson's disease (Ala30Pro or Ala53Thr), MPP+, enzymes or inhibitors were diluted into X/2 buffer (175 mM potassium aspartate, 65 mM taurine, 35 mM betaine, 25 mM glycine, 10 mM HEPES, 6.5 mM MgCl2, 5 mM EGTA, 1.5 mM CaCl2, 0.5 mM glucose, pH 7.2) supplemented with 2-5 mM ATP and 20 μl of this mix was added to perfusion chambers (Brady, et al. (1985) supra). Preparations were analyzed on a ZEISS AXIOMAT with a 100×, 1.3 na objective, and DIC optics. Hamamatsu Argus 20 and Model 2400 CCD camera were used for image processing and analysis. Organelle velocities were measured with a Photonics Microscopy C2117 video manipulator (Hamamatsu).
Accordingly, these inhibitors were coperfused with pathological α-synuclein mutant Ala30Pro and fast axonal transport was monitored. […] Similarly, the effects of α-synuclein mutant Ala30Pro could be blocked by a PKCmu peptide substrate (FIG. 3B) and an inhibitor of Src-Family Tyrosine Kinases (PP2) (FIG. 3C).

[2] = test system: MPP+ induced failure of neurotransmission; test: Squid giant synapse: prevention of MPP+ induced failure of neurotransmission; type: cell-based; conditions: co-injection with MPP+
Protocol: (§3) If they both work by activating PKC and increasing retrograde transport, they might affect availability of synaptic vesicle components in presynaptic terminals. Accordingly, either wild-type α-synuclein, Ala30Pro α-synuclein, or MPP+ were injected into the presynaptic side of the squid giant synapse as described for synaptic vesicles and synapsin (McGuinness, et al. (1989) J. Neurosci. 9:4138-4149; Llinas, et al. (1989) Proc. Nat. Acad. Sci. USA 86:5656-5660). This preparation has been used to evaluate the effects of reagents on presynaptic function by injecting, then stimulating the presynaptic side while recording intracellularly on both pre- and post-synaptic sides (Llinas, et al. (2004) Proc. Natl. Acad. Sci. USA 101:17855-60; Sugimori, et al. (1998) Neuroscience 86:39-51).

[3] = test system: Ala30Pro mutant α-synuclein induced failure of neurotransmission; test: Squid giant synapse: prevention of Ala30Pro α-synuclein induced failure of neurotransmission; type: cell-based; conditions: co-injection / coperfusion with Ala30Pro α-synuclein
Protocol: as §3

[4] = test system: MPP+ effects on fast axonal transport; test: Isolated axoplasm: blocking of MPP+ effects on fast axonal transport; type: cell-based, squid Loligo pealeii; conditions: for blocking of MPP+ effects on fast axonal transport: FIG. 5B
Protocol: as §2, §1

fast axonal transport = test: Motility studies in isolated axoplasm: effect of perfused substance on fast axonal transport; type: cell-based, squid Loligo pealeii; conditions: substance perfused alone into isolated axoplasm
Protocol: as §2

[5] = test system: neurotransmission at squid giant synapse; test: Squid giant synapse: neurotransmission after presynaptic injection; type: cell-based; conditions: injected into presynaptic side of squid giant synapse; observed up to 90 minutes
Protocol: as §3

PKC = PKC activity in axoplasm; type: biochemical, squid
Protocol: In the analysis disclosed herein, 3-4 axoplasms were triturated in KB buffer (10 mM HEPES, pH 7.4, 10 mM MgCl2, 1 mM DTT) and aliquoted. Individual reactions with corresponding in vitro translated AR constructs were started by adding radiolabeled ATP to 100 μM. Reactions were performed in 50 μl, incubated for 20 minutes at room temperature and stopped with 50 μl of 2× sample buffer. Lysates were separated by SDS-PAGE and analyzed by autoradiography.

| Structure (SMILES) | blocking of MPP+ induced increase in DIC phosphorylation (DIC phosphorylation; MPP+ treated cortical neurons) | blocking of familial Parkinson's disease mutant α-synuclein (Ala30Pro) effects on fast axonal transport ([1]; listed as Caspase inhibitor) | blocking of familial Parkinson's disease mutant α-synuclein (Ala30Pro) effects on fast axonal transport ([1]; listed as inhibitors of Caspase 3) | prevention of MPP+ induced failure of neurotransmission [2] | prevention of Ala30Pro α-synuclein effect on neurotransmission [3] | blocking of MPP+ effects on fast axonal transport [4] | blocking of MPP+ effects on fast axonal transport ([4]; listed as caspase3 inhibitor II) | anterograde transport rate in presence of MPP+ and inhibitor ([4]; coperfused with MPP+) | retrograde transport rate in presence of MPP+ and inhibitor ([4]; coperfused with MPP+) | DIC phosphorylation (DIC phosphorylation; cortical neurons treated with substance alone) | retrograde transport rate (fast axonal transport; controls 1.2 μm/sec) | anterograde transport rate (fast axonal transport; controls 1.6 μm/sec) | effect on neurotransmission, in words [5] | PKC activity in axoplasm (PKC) |
| --- | --- | --- | --- | --- | --- | --- | --- | --- | --- | --- | --- | --- | --- | --- |
| COC(=O)CC[C@H](NC(=O)[C@H](CC(=O)OC)NC(=O)OCc1ccccc1)C(=O)N[C@H](C(=O)N[C@@H](CC(=O)OC)C(=O)CF)C(C)C [Caspase3 Inhibitor II] | blocked | ineffective | not effective | prevented | not effective | completely block | blocked | 1.527±0.019 μm/sec | 1.187±0.019 μm/sec |  |  |  |  |  |
| C[n+]1ccc(-c2ccccc2)cc1 [MPP+] |  |  |  |  |  |  |  |  |  | increased DIC phosphorylation | 1.461±0.023 μm/sec | 1.272±0.0032 μm/sec | failure of neurotransmission | activated PKC activity |
